Assay results reported in patent publication US9663496B2, “AMPK-activating heterocyclic compounds and methods for using the same” (Rigel Pharmaceuticals, Inc., priority 2010, dated 2017).

biological target: AMPK; experiment: AMPK activation, enzyme-linked immunosorbent assay; type: biochemical; details: EC50 for AMPK activation, ELISA
Outline: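 Read-out: immunodetected kinase activation after compound exposure, run with commercial kit reagents.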

Row | EC50 [µM] | SMILES
1 | < 0.5 | N#Cc1ccc(CN2CCC(NC(=O)c3ccc(C(=O)N4CCC(C(F)c5ccc(F)cc5)CC4)cn3)CC2)cc1 (stereo not drawn) [Compound 138, N-(1-(4-cyanobenzyl)piperidin-4-yl)-5-(4-(fluoro(4-fluorophenyl)methyl)piperidine-1-carbonyl)picolinamide]
2 | < 0.5 | COc1ccc(OC2CCN(C(=O)c3ccc(C(=O)N[C@H]4CC[C@@H](Oc5ccc(C#N)cc5)CC4)nc3)CC2)cc1 [Compound 174, N-((cis)-4-(4-cyanophenoxy)cyclohexyl)-5-(4-(4-methoxyphenoxy)piperidine-1-carbonyl)picolinamide]
3 | > 10 | COc1ccc(OC2CCN(C(=O)c3ccc(C(=O)NC4CCN(Cc5ccc(C#N)cc5)CC4)cn3)CC2)c(N(C)C)c1 [Compound 385, N-(1-(4-cyanobenzyl)piperidin-4-yl)-6-(4-(2-(dimethylamino)-4-methoxyphenoxy)piperidine-1-carbonyl)nicotinamide]
4 | 1 to 5 | COc1ccc(C(=O)C2CCN(C(=O)c3ccc(C(=O)NC4CCN(Cc5ccc(NC(C)=O)cc5)CC4)cn3)CC2)cc1 [Compound 401, N-(1-(4-acetamidobenzyl)piperidin-4-yl)-6-(4-(4-methoxybenzoyl)piperidine-1-carbonyl)nicotinamide]
5 | < 0.5 | O=C(Nc1ccc(Oc2ccc(F)cc2)nc1)c1ccc(C(=O)N2CCC(Oc3cccc(NC(=O)C4CC4)c3)CC2)nc1 [Compound 433, 6-(4-(3-(cyclopropanecarboxamido)phenoxy)piperidine-1-carbonyl)-N-(6-(4-fluorophenoxy)pyridin-3-yl)nicotinamide]
6 | < 0.5 | CS(=O)(=O)c1ccc(OC2CCN(C(=O)c3ccc(C(=O)NC4CCN(Cc5ccc(C#N)cc5)CC4)nc3)CC2)cc1 [Compound 227, N-(1-(4-cyanobenzyl)piperidin-4-yl)-5-(4-(4-(methylsulfonyl)phenoxy)piperidine-1-carbonyl)picolinamide]
7 | 0.5 to 1 | CS(=O)(=O)c1ccc(OC2CCN(C(=O)c3ccc(C(=O)NC4CCN(Cc5ccc(N6CCCC6)cc5)CC4)cn3)CC2)cc1 [Compound 230, 6-(4-(4-(methylsulfonyl)phenoxy)piperidine-1-carbonyl)-N-(1-(4-(pyrrolidin-1-yl)benzyl)piperidin-4-yl)nicotinamide]
8 | < 0.5 | COc1ccc(C(=O)C2CCN(C(=O)c3ccc(C(=O)N[C@H]4CC[C@@H](Oc5ccc(C#N)cc5)CC4)nc3)CC2)cc1 [Compound 171, N-((cis)-4-(4-cyanophenoxy)cyclohexyl)-5-(4-(4-methoxybenzoyl)piperidine-1-carbonyl)picolinamide]
9 | < 0.5 | O=C(Nc1ccc(Oc2ccc(F)cc2)nc1)c1ccc(C(=O)N2CCC(C(=O)c3ccc(F)cc3)CC2)cn1 [Compound 272, 5-(4-(4-fluorobenzoyl)piperidine-1-carbonyl)-N-(6-(4-fluorophenoxy)pyridin-3-yl)picolinamide]
10 | < 0.5 | O=C(Nc1ccc(Oc2ccc(F)cc2)nc1)c1ccc(C(=O)N2CCC(C(=O)c3ccc(F)cc3F)CC2)nc1 [Compound 348, 6-(4-(2,4-difluorobenzoyl)piperidine-1-carbonyl)-N-(6-(4-fluorophenoxy)pyridin-3-yl)nicotinamide]
11 | 1 to 5 | N#Cc1ccc(Oc2ccc(NC(=O)c3ccc(C(=O)N4CCC(S(=O)(=O)c5ccc(F)cc5)CC4)nc3)cn2)cc1 [Compound 472, N-(6-(4-cyanophenoxy)pyridin-3-yl)-6-(4-(4-fluorophenylsulfonyl)piperidine-1-carbonyl)nicotinamide]
12 | 5 to 10 | O=C(N[C@@H]1CCNC[C@@H]1F)c1ccc(C(=O)N2CCN(Cc3ccc(F)cc3)CC2)cn1 (relative stereo) [Compound 102, 5-(4-(4-fluorobenzyl)piperazine-1-carbonyl)-N-(cis-3-fluoropiperidin-4-yl)picolinamide]
13 | < 0.5 | N#Cc1ccc(OC2CCN(C(=O)c3ccc(C(=O)NC4CCN(Cc5ccc(N6CCCC6)cc5)CC4)cn3)CC2)cc1 [Compound 336, 6-(4-(4-cyanophenoxy)piperidine-1-carbonyl)-N-(1-(4-(pyrrolidin-1-yl)benzyl)piperidin-4-yl)nicotinamide]
14 | < 0.5 | N#Cc1ccc(CN2CC[C@H](NC(=O)c3ccc(C(=O)N4CCN(Cc5ccc(F)cc5)CC4)cn3)C2)cc1 [Compound 123, (S)-N-(1-(4-cyanobenzyl)pyrrolidin-3-yl)-5-(4-(4-fluorobenzyl)piperazine-1-carbonyl)picolinamide]
15 | < 0.5 | N#Cc1ccc(CN2CCC(NC(=O)c3ccc(C(=O)N4CCC(Oc5ccc(SC(F)(F)F)cc5)CC4)cn3)CC2)cc1 [Compound 410, N-(1-(4-cyanobenzyl)piperidin-4-yl)-5-(4-(4-(trifluoromethylthio)phenoxy)piperidine-1-carbonyl)picolinamide]
16 | 1 to 5 | CS(=O)(=O)c1ccc(OC2CCN(C(=O)c3ccc(C(=O)NC4CCN(Cc5ccc(F)cc5)CC4)cn3)CC2)cc1 [Compound 396, N-(1-(4-fluorobenzyl)piperidin-4-yl)-6-(4-(4-(methylsulfonyl)phenoxy)piperidine-1-carbonyl)nicotinamide]
17 | < 0.5 | N#Cc1ccc(CN2CCC(NC(=O)c3ccc(C(=O)N4CCCC(Oc5ccc(C#N)cc5)C4)cn3)CC2)cc1 (stereo not drawn) [Compound 137, N-(1-(4-cyanobenzyl)piperidin-4-yl)-5-(3-(4-cyanophenoxy)piperidine-1-carbonyl)picolinamide]

Row | EC50 [µM] | SMILES
18 | < 0.5 | COc1ccc(CN2CCC(NC(=O)c3ccc(C(=O)N4CCN(Cc5ccc(F)cc5)CC4)cn3)CC2)cc1 [Compound 117, 5-(4-(4-fluorobenzyl)piperazine-1-carbonyl)-N-(1-(4-methoxybenzyl)piperidin-4-yl)picolinamide]
19 | < 0.5 | O=C(NC1CCN(C(=O)c2ccccc2)CC1)c1ccc(C(=O)N2CCN(Cc3ccc(F)cc3)CC2)cn1 [Compound 8, N-(1-(benzoyl)piperidin-4-yl)-5-(4-(4-fluorobenzyl)piperazine-1-carbonyl)picolinamide]
20 | < 0.5 | O=C(NC1CCN(Cc2ccc(N3CCCC3)cc2)CC1)c1ccc(C(=O)N2CCC(C(=O)c3ccc(N4CCCC4)cc3)CC2)nc1 [Compound 444, 6-(4-(4-(pyrrolidin-1-yl)benzoyl)piperidine-1-carbonyl)-N-(1-(4-(pyrrolidin-1-yl)benzyl)piperidin-4-yl)nicotinamide]
21 | 1 to 5 | O=C(NC1CCN(Cc2ccccc2)CC1)c1ccc(Nc2ccc(Oc3ccccc3)cc2)cn1 [Compound 113, N-(1-benzylpiperidin-4-yl)-5-(4-phenoxyphenylamino) picolinamide]
22 | < 0.5 | O=C(NC1CCN(Cc2ccc(OC(F)(F)F)cc2)CC1)c1ccc(C(=O)N2CCC(Oc3ccc(S(=O)(=O)C4CC4)cc3)CC2)nc1 [Compound 249, 6-(4-(4-(cyclopropylsulfonyl)phenoxy)piperidine-1-carbonyl)-N-(1-(4-(trifluoromethoxy)benzyl)piperidin-4-yl)nicotinamide]
23 | 1 to 5 | N#Cc1ccc(O[C@H]2CC[C@@H](NC(=O)c3ccc(C(=O)N4CC[C@H](Oc5ccc(F)cc5)C4)cn3)CC2)cc1 [Compound 176, N-((cis)-4-(4-cyanophenoxy)cyclohexyl)-5-((S)-3-(4-fluorophenoxy)pyrrolidine-1-carbonyl)picolinamide]
24 | 1 to 5 | O=C(NC1CCN(Cc2ccc(F)cc2)CC1)c1cccc(C(=O)NC2CCN(Cc3ccc(F)cc3)CC2)n1 [Compound 87, N2,N6-bis(1-(4-fluorobenzyl)piperidin-4-yl)pyridine-2,6-dicarboxamide]
25 | < 0.5 | N#Cc1ccc(O[C@H]2CC[C@@H](NC(=O)c3ccc(C(=O)N4CCN(Cc5ccc(F)cc5)CC4)cn3)CC2)cc1 [Compound 150, N-(cis-4-(4-cyanophenoxy)cyclohexyl)-5-(4-(4-fluorobenzyl)piperazine-1-carbonyl)picolinamide]
26 | < 0.5 | CN1CCN(c2ccc(C(=O)C3CCN(C(=O)c4cnc(C(=O)NC5CCN(Cc6ccc(C#N)cc6)CC5)cn4)CC3)cc2)CC1 [Compound 220, N-(1-(4-cyanobenzyl)piperidin-4-yl)-5-(4-(4-(4-methylpiperazin-1-yl)benzoyl)piperidine-1-carbonyl)pyrazine-2-carboxamide]
27 | < 0.5 | N#Cc1ccc(Oc2ccc(NC(=O)c3ccc(C(=O)N4CCC(C(=O)c5ccc(F)cc5F)CC4)nc3)nc2)cc1 [Compound 469, N-(5-(4-cyanophenoxy)pyridin-2-yl)-6-(4-(2,4-difluorobenzoyl)piperidine-1-carbonyl)nicotinamide]
28 | < 0.5 | CS(=O)(=O)c1ccc(OC2CCN(C(=O)c3cnc(C(=O)NC4CCN(Cc5ccc(C#N)cc5)CC4)cn3)CC2)cc1 [Compound 218, N-(1-(4-cyanobenzyl)piperidin-4-yl)-5-(4-(4-(methylsulfonyl)phenoxy)piperidine-1-carbonyl)pyrazine-2-carboxamide]
29 | < 0.5 | N#Cc1ccc(CN2CCC(NC(=O)c3ccc(C(=O)N4CCC(Oc5ccc(F)cc5F)CC4)nc3)CC2)cc1 [Compound 345, N-(1-(4-cyanobenzyl)piperidin-4-yl)-6-(4-(2,4-difluorophenoxy)piperidine-1-carbonyl)nicotinamide]
30 | > 10 | O=C(c1cccc(C(=O)N2CCN(Cc3ccc(F)cc3)CC2)n1)N1CCN(CCc2ccccc2)CC1 [Compound 93, (4-(4-fluorobenzyl)piperazin-1-yl)(6-(4-phenethylpiperazine-1-carbonyl)pyridin-2-yl)methanone]
31 | < 0.5 | COc1ccc(CN2CCC(NC(=O)c3ccc(C(=O)N4CCC(C(=O)c5ccc(OC)cc5)CC4)nc3)CC2)cc1 [Compound 318, 6-(4-(4-methoxybenzoyl)piperidine-1-carbonyl)-N-(1-(4-methoxybenzyl)piperidin-4-yl)nicotinamide]
32 | 1 to 5 | N#Cc1ccc(CN2CCC(NC(=O)c3ccc(C(=O)N4CCC(S(=O)(=O)c5ccc(F)cc5)CC4)nc3)CC2)cc1 [Compound 471, N-(1-(4-cyanobenzyl)piperidin-4-yl)-6-(4-(4-fluorophenylsulfonyl)piperidine-1-carbonyl)nicotinamide]
33 | < 0.5 | COc1ccc(C(=O)C2CCN(C(=O)c3ccc(C(=O)N[C@@H]4CCN(Cc5ccc(OC(F)(F)F)cc5)C[C@H]4F)cn3)CC2)cc1 (relative stereo) [Compound 350, N-((trans)-3-fluoro-1-(4-(trifluoromethoxy)benzyl)piperidin-4-yl)-6-(4-(4-methoxybenzoyl)piperidine-1-carbonyl)nicotinamide]
